Test results: patent US10725042B2, “Methods of diagnosing and treating cancer” (Case Western Reserve University, priority 2012, dated 2020)
pIC50: −log10 of the molar value.

How the values were obtained:
[1] = test system: H460 cells; assay: Clonogenic survival assay, H460 cells; format: cell-based; settings: Homo sapiens, NCI-H460, read-out: IC50 values for pemetrexed
Method: Tumor cells (500-2000/dish) were plated and treated with pemetrexed (0-400 nM), 5-fluorouracil (0-20 μM), temozolomide (0-1500 μM), or cisplatin (0-40 μM). After 7 days, surviving colonies were stained with methylene blue for 30 min at room temperature and the colonies containing more than 50 cells were counted to generate survival curves.

[2] = test system: DLD1/UDG+/+ cells; assay: Cell cycle analysis, UDG+/+ cells; format: cell-based, human; settings: pemetrexed 25 nM
Method: For cell cycle analysis, 10^6 cells (DLD1/UDG^+/+ and DLD1/UDG^−/−) were plated in 100-mm tissue culture dishes and exposed to pemetrexed (25 nM). After 6, 24 and 72 h of culture, cells were fixed with 80% methanol and washed with ice-cold 1% BSA/PBS. DNA was stained with 20 μg/mL propidium iodide (Sigma-Aldrich) and 2.5 μg/mL of DNase-free RNase A (Roche). The DNA fluorescence of propidium iodide-stained cells was measured with an Elite ESP flow cytometer/cell sorter (Coulter, Miami, Fla.).

[3] = test system: H1975 shUNG cells; assay: PCNA dissociation by bi-parametric flow cytometry, H1975 shUNG cells; format: cell-based, human; settings: 25 nM pemetrexed
Method: Propidium iodine (PI) staining of methanol fixed cells was for cell cycle determinations. Where indicated, FITC labeled PCNA antibody (PCNA-FITC, Abcam) was added for PCNA detection. Uni-parameter (PI-only) and dual-parameter (PI+PCNA-FITC) analysis was performed on a Coulter flow cytometer (EPICS-XL-MCL). Cell cycle histograms (PI) and PCNA dot plots (PCNA-FITC) were de-convoluted from ≥20,000 events using FlowJo software.
Prolonged S-phase arrest is known to result in DNA DSB formation due to the collapse of stalled replication forks. We evaluated the stability of the DNA replication fork in pemetrexed treated lung cancer cells with native and reduced levels of UNG protein. Nucleotide incorporation experiments using CldU and IdU indicate decreased postpemetrexed treatment nucleotide incorporation (data not shown). […] Using bi-parametric flow cytometry we measured the dissociation of the replication fork processivity factor, PCNA at the single cell level in H1975 cells expressing UNG directed shRNA. Similar assays have been utilized to detect replication fork disassembly following etoposide and hydroxyurea exposure. PCNA dissociation was determined by the percentage of cells in S phase having low PCNA (red box, FIG. 11d). […] As a complimentary experiment, we examined the expression of chromatin-bound PCNA after pemetrexed treatment by western blot of chromatin cellular extracts.

[4] = test system: H1299/PR-1 cells; assay: Colony survival assay, H1299/PR-1 pemetrexed-resistant subline; format: cell-based, human; settings: PR-1 vs H1299 parental, colony survival
Method: For cells in suspension, colony survival was determined by crystal violet staining of colonies formed after 10-day exposure of 5×10^3 cells to pemetrexed in soft agar. For adherent cells, colony survival was determined by methylene blue staining of colonies formed after 10-day exposure of 100 cells to pemetrexed in 6-well culture dishes. Only colonies containing ≥50 cells were counted. Data points represent percent of colonies relative to untreated control averaged over 3 experiments.
H1299 cells were exposed to step-wise increasing concentrations of pemetrexed over a period of 4 months. UNG expression was monitored in the bulk population at 2, 8, 12 and 16 weeks prior to administration of the induction dosage and at 24 weeks in a population of bulk chronically exposed cells that had been without pemetrexed for 8 weeks. H1299 cells capable of growth in 50 nM pemetrexed selection pressure were subcloned by limiting dilution in 96 well plates. Independent sublines were designated H1299/PR-1 and H1299/PR-2.

[5] = test system: AP sites in DNA of UDG+/+ cells; assay: AP site assay (ARP), UDG+/+ cells; format: cell-based, human; settings: pemetrexed 0-400 nM, 24 hrs
Method: (§1) The number of AP sites was measured using ARP (aldehyde reactive probe) reagent. The assay was performed as previously described. Briefly, cells (2×10^6) were collected after drug treatment and DNA was extracted. DNA (10 μg) was incubated with 15 μl of 1 mM ARP (Dojindo Laboratories, Kumamoto, Japan), and then precipitated and washed with ice-cold ethanol. The ARP-labeled DNA was then heat-denatured at 100° C. for 5 min, quickly chilled on ice and mixed with an equal volume of 2 M ammonium acetate. The DNA was then immobilized on a BA-S 85 nitrocellulose membrane (Schleicher and Schuell, Dassel, Germany) using a minifold II vacuum filter device (Schleicher and Schuell, Dassel, Germany). The membrane was incubated with 0.25% BSA-PBS containing streptavidin-conjugated horseradish peroxidase (BioGenex, SanRamon, Calif.) at room temperature for 40 min with gentle shaking. ARP-labeled AP sites were visualized by chemiluminescence (Amersham Corp, Piscataway, N.J.) followed by quantitative densitometry using NIH Image J software.

[6] = test system: AP sites in DNA of H460 cells; assay: AP site assay (ARP), H460 cells; format: cell-based, human; settings: pemetrexed 0-400 nM, MX 6 mM, 24 hrs
Method: as §1

[7] = test system: UNG expression in H460 cells; assay: UNG protein and transcript expression after acute pemetrexed exposure, H460; format: cell-based, human; settings: acute pemetrexed exposure 0-200 nM
Method: Protein extracts (25 μg) were resolved by SDS-PAGE and transferred to PVDF membrane (Millipore). Non-specific binding sites were blocked in 5% milk in PBST (1×PBS+0.1% Tween-20). Incubation with primary antibody at 4° C. in 5% BSA/PBS was followed by incubation with HRP-conjugated secondary antibody in 2.5% milk in PBST. Proteins were visualized with ECL reagent (Amersham Corp). Chromatinbound proteins were extracted from formaldehyde (1%) cross-linked cells using Pierce Chromatin Prep Module (Thermo Pierce). Antibody sources: UNG-23936 (39 kDa band, nuclear UNG) and PCNA (Abcam); Tubulin (Calbiochem); γH2AX and Histone-H3 (Millipore); Cleaved PARP (Cell Signaling); and p-chk1, chk1, cdc2, and p-cdc2 (Santa Cruz).
Lung cancer cDNA microarray was purchased from Origene. For cell lines, total RNA was extracted from cells using RNAqueous-4PCR kit (Ambion, Austin, Tex.). Random hexamers (Invitrogen) were used to PCR amplify cDNA from 1 μg of RNA extract. TaqMAN MGB probes (FAMTM dye labeled, Applied Biosystems) for nuclear UNG (UNG2), SMUG1, MBD4, TDG, TYMS and βPol amplified cDNA using 40 cycles of PCR in an ABI 7500 Fast Real-Time PCR System (Applied Biosystems, Foster City, Calif.). Target quantification was achieved after normalization to β-actin amplification as an endogenous control and is presented as relative quantification (RQ) values or log-mean RQ values.

Nc1nc2[nH]cc(CCc3ccc(C(=O)N[C@@H](CCC(=O)O)C(=O)O)cc3)c2c(=O)[nH]1 [pemetrexed]
pIC50 [1]: 6.96
cells transiently arrested in S-phase ([2]; 24 hr (untreated 17%)): 21%
cells in the subG1 compartment ([2]; 72 hr): 6%
cells in S phase having low PCNA ([3]; 6 hours): 3.88±0.93%
cells in S phase having low PCNA ([3]; 24 hours): 7.81±1.19%
relative resistance to pemetrexed compared to parental cells [4]: 25 fold
AP sites in DNA [5]: dose-dependent formation of AP sites
ARP-detected AP sites [6]: increased as the concentration of pemetrexed increased
UNG protein and transcript expression [7]: time- and dosedependent induction
